Data reported in ChEMBL document CHEMBL3727348, “3-(aryl or heteroaryl) methyleneindolin-2-one derivatives as inhibitors of cancer stem cell pathway kinases for the treatment of cancer” (2014).

Key:
FaDu [1] = assay: Cytotoxic activity against human FADU cancer stem cells incubated for 72 hrs by Cell-titer-Glo luminescence assay; type: functional, cell-based
[2] = biological target: T1, Ribosomal protein S6 kinase (Homo sapiens) (UniProt P51812+Q9UBS0+O75676+Q15349+O75582+P23443+Q9UK32+Q15418); assay: Inhibition of RPS6 kinase in human HeLa cells assessed as p-RPS6 Ser240/244 phosphorylation level at 5 uM incubated for 6 hrs by SDS-PAGE based chemiluminescence assay; type: cell-based; design: scale not given: the % may be the effect or the level left
[3] = biological target: AMP-activated protein kinase, AMPK (Homo sapiens) (UniProt P54646+O43741+P54619+Q9UGJ0+Q9Y478+Q13131+Q9UGI9); assay: Inhibition of AMPK in human HeLa cells assessed as kinase phosphorylation level at 5 uM incubated for 6 hrs by SDS-PAGE based chemiluminescence assay; type: cell-based; design: scale not given: the % may be the effect or the level left
ACHN [4] = assay: Cytotoxic activity against human ACHN bulk cells incubated for 72 hrs by Cell-titer-Glo luminescence assay; type: functional, cell-based
FaDu [5] = assay: Cytotoxic activity against human FADU bulk cells incubated for 72 hrs by Cell-titer-Glo luminescence assay; type: functional, cell-based
ACHN [6] = assay: Cytotoxic activity against human ACHN cancer stem cells incubated for 72 hrs by Cell-titer-Glo luminescence assay; type: functional, cell-based
A549 [7] = assay: Cytotoxic activity against human A549 bulk cells incubated for 72 hrs by Cell-titer-Glo luminescence assay; type: functional, cell-based; conditions: A549, 72 h
[8] = biological target: T1, Ribosomal protein S6 kinase (Homo sapiens); assay: Inhibition of RPS6 kinase in human HeLa cells assessed as p-RPS6 Ser235/236 phosphorylation level at 5 uM incubated for 6 hrs by SDS-PAGE based chemiluminescence assay; type: cell-based; design: scale not given: the % may be the effect or the level left
A549 [9] = assay: Cytotoxic activity against human A549 cancer stem cells incubated for 72 hrs by Cell-titer-Glo luminescence assay; type: functional, cell-based; conditions: A549, 72 h
[10] = biological target: Serine/threonine-protein kinase RIO2 (Homo sapiens) (UniProt Q9BVS4); assay: Inhibition of N-terminal GST-fused full length human recombinant RIOK2 expressed in baculovirus Sf21 cells assessed as reduction in kinase auto-phosphorylation at 1 uM in presence of ATP incubated for 1 hr by ELISA method
[11] = biological target: Serine/threonine-protein kinase RIO2 (Homo sapiens) (UniProt Q9BVS4); assay: Inhibition of N-terminal GST-fused full length human recombinant RIOK2 expressed in baculovirus Sf21 cells assessed as reduction in kinase auto-phosphorylation at 10 uM in presence of ATP incubated for 1 hr by ELISA method

Sequence of Serine/threonine-protein kinase RIO2 (Homo sapiens) (Q9BVS4 whole entry, looked up, the tested form may be a part): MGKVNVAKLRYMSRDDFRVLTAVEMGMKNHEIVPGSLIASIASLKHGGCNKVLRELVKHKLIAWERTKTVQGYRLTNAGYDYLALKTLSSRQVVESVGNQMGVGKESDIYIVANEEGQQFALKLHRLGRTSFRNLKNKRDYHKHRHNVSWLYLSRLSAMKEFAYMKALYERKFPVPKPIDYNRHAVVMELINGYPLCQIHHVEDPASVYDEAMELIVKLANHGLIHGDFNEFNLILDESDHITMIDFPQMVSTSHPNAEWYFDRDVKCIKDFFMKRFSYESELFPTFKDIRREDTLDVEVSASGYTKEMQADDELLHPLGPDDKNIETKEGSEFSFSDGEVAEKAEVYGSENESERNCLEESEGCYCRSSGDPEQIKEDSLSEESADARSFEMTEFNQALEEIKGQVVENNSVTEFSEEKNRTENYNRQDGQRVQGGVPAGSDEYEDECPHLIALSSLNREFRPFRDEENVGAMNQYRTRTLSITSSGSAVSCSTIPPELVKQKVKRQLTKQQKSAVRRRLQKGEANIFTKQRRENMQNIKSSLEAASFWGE

| Activity [2] | Activity [3] | Activity [8] | inhibition [10] | inhibition [11] | Structure (SMILES) | IC50 (FaDu [1]) | IC50 (ACHN [4]) | IC50 (FaDu [5]) | IC50 (ACHN [6]) | IC50 (A549 [7]) | IC50 (A549 [9]) |
| --- | --- | --- | --- | --- | --- | --- | --- | --- | --- | --- | --- |
| 23% | 8% | 2% |  |  | CCN(CC)CCNC(=O)c1c(C)[nH]c(/C=C2\C(=O)Nc3cccc(-c4ccc(-c5ccccc5)cc4)c32)c1C | 280 nM | 1600 nM | 1110 nM | 330 nM | 5090 nM | 4320 nM |
| 65% | 56% | 60% |  |  | CCN(CC)CCNC(=O)c1c(C)[nH]c(/C=C2\C(=O)Nc3c2cccc3-c2ccncc2)c1C | 4410 nM | 6390 nM | 6740 nM | 4990 nM | 6850 nM | 12600 nM |
|  |  |  | 40% | 109% | CCN(CC)CCNC(=O)c1c(C)[nH]c(/C=C2\C(=O)Nc3ccc(-c4cnn(-c5ccncn5)c4)cc32)c1C |  |  |  |  |  |  |
|  |  |  | 4% | 99% | CCN(CC)CCNC(=O)c1c(C)[nH]c(/C=C2\C(=O)Nc3ccc(-c4cnn(-c5ccccc5Cl)c4)cc32)c1C |  |  |  |  |  |  |
|  |  |  | 29% | 137% | CCN(CC)CCNC(=O)c1c(C)[nH]c(/C=C2\C(=O)Nc3ccc(-c4ccnn4-c4cccc(C)c4)cc32)c1C |  |  |  |  |  |  |
| 32% | 144% | 2% |  |  | CCN(CC)CCNC(=O)c1c(C)[nH]c(/C=C2\C(=O)Nc3c2cccc3-c2csc(-c3ccccc3)n2)c1C | 1260 nM | 3200 nM | 3750 nM | 280 nM | 1960 nM | 1570 nM |
|  |  |  | 51% | 98% | CCN(CC)CCNC(=O)c1c(C)[nH]c(/C=C2\C(=O)Nc3ccc(-c4ccnn4-c4cccc(OC)c4)cc32)c1C |  |  |  |  |  |  |
| 59% | 50% | 47% |  |  | CCN(CC)CCNC(=O)c1c(C)[nH]c(/C=C2\C(=O)Nc3c2cccc3-c2cncc(C)c2)c1C | 2200 nM | 1680 nM | 6230 nM | 1970 nM | 3360 nM | 2230 nM |
| 64% | 144% | 19% |  |  | CCN(CC)CCNC(=O)c1c(C)[nH]c(/C=C2\C(=O)Nc3ccc(-c4ccc(-c5ccccc5)o4)cc32)c1C | 1410 nM | 3660 nM | 3090 nM | 250 nM | 4300 nM | 8250 nM |
| 54% | 31% | 48% |  |  | CCN(CC)CCNC(=O)c1c(C)[nH]c(/C=C2\C(=O)Nc3c2cccc3-c2cccnc2OC)c1C | 1920 nM | 3640 nM | 3810 nM | 2710 nM | 5320 nM | 6870 nM |
| 88% | 47% | 79% |  |  | CCN(CC)CCNC(=O)c1c(C)[nH]c(/C=C2\C(=O)Nc3ccc(-c4csc(-c5ccc(O)cc5)n4)cc32)c1C | 1850 nM | 1380 nM | 700 nM | 500 nM | 3060 nM | 6990 nM |
| 26% | 22% | 4% |  |  | CCN(CC)CCNC(=O)c1c(C)[nH]c(/C=C2\C(=O)Nc3ccc(-c4n[nH]c5ccccc45)cc32)c1C | 10200 nM | 4310 nM | 2850 nM | 1310 nM | 3020 nM | 5650 nM |
| 42% | 35% | 5% |  |  | CCN(CC)CCNC(=O)c1c(C)[nH]c(/C=C2\C(=O)Nc3ccc(-c4csc(-c5ccccc5)n4)nc32)c1C | 110 nM | 1370 nM | 1370 nM | 970 nM | 1740 nM | 620 nM |
| 31% | 8% | 1% |  |  | CCN(CC)CCNC(=O)c1c(C)[nH]c(/C=C2\C(=O)Nc3ccc(-c4cccnc4)cc32)c1C | 4310 nM | 1310 nM | 2820 nM | 1060 nM | 840 nM | 3900 nM |
| 82% | 118% | 61% |  |  | CCN(CC)CCNC(=O)c1c(C)[nH]c(/C=C2\C(=O)Nc3ccc(-c4ccc(-c5ccccc5)cn4)cc32)c1C | 4810 nM | 5380 nM | 2720 nM | 650 nM | 2020 nM | 3790 nM |

More lines, now with the values behind:

| Structure (SMILES) | Activity [2] | Activity [3] | Activity [8] | inhibition [10] | inhibition [11] | IC50 (FaDu [1]) | IC50 (ACHN [4]) | IC50 (FaDu [5]) | IC50 (ACHN [6]) | IC50 (A549 [7]) | IC50 (A549 [9]) |
| --- | --- | --- | --- | --- | --- | --- | --- | --- | --- | --- | --- |
| Cc1[nH]c(/C=C2\C(=O)Nc3ccc(-c4cnn(-c5ccccc5)c4)cc32)c(C)c1C(=O)N[C@@H]1CCCNC1 |  |  |  | 22% | 130% |  |  |  |  |  |  |
| Cc1[nH]c(/C=C2\C(=O)Nc3ccc(-c4cnn(-c5ccccc5)c4)cc32)c(C)c1C(=O)NC[C@H]1CCCN1 |  |  |  | 9% | 126% |  |  |  |  |  |  |
| Cc1[nH]c(/C=C2\C(=O)Nc3ccc(-c4cnn(-c5ccccc5)c4)cc32)c(C)c1C(=O)N[C@H]1CCCNC1 |  |  |  | 1.4% | 122% |  |  |  |  |  |  |
| Cc1[nH]c(/C=C2\C(=O)Nc3cc(-c4csc(-c5ccccc5)n4)ccc32)c(C)c1C(=O)N1CCN(C)CC1 | 73% | 150% | 33% |  |  | 1030 nM | 11600 nM | 4740 nM | 390 nM | 26300 nM | 1220 nM |
| Cc1[nH]c(/C=C2\C(=O)Nc3c2cccc3-c2csc(-c3ccccc3)n2)c(C)c1C(=O)N1CCN(C)CC1 | 32% | 122% | 2% |  |  | 2990 nM | 15200 nM | 5410 nM | 500 nM | 5410 nM | 4190 nM |
| Cc1cc(C)c(/C=C2\C(=O)Nc3cccc(-c4ccncc4)c32)[nH]1 | 47% | 75% | 50% |  |  | 12200 nM | 19800 nM | 19600 nM | 16200 nM | 13100 nM | 30300 nM |
| Cc1cc(C)c(/C=C2\C(=O)Nc3ccc(-c4ccc5cn[nH]c(=O)c5c4)cc32)[nH]1 | 24% | 39% | 1% |  |  | 2960 nM | 1120 nM | 2550 nM | 260 nM | 1400 nM | 3000 nM |
| CCN(CC)CCNC(=O)c1c(C)[nH]c(/C=C2\C(=O)Nc3c2cccc3-c2cncnc2)c1C | 72% | 60% | 71% |  |  | 6730 nM | 16400 nM | 36300 nM | 10900 nM | 21500 nM | 27500 nM |
| Cc1cc(C)c(/C=C2\C(=O)Nc3ccc(-c4csc(C5CCNCC5)n4)cc32)[nH]1 | 76% | 47% | 76% |  |  | 430 nM | 1560 nM | 1620 nM | 90 nM | 1290 nM | 880 nM |
| Cc1[nH]c(/C=C2\C(=O)Nc3ccc(-c4csc(-c5ccccc5)n4)nc32)c(C)c1C(=O)NCCN1CCCC1 | 51% | 41% | 13% |  |  | 170 nM | 1520 nM | 1730 nM | 400 nM | 1430 nM | 2470 nM |
| Cc1cc(C)c(/C=C2\C(=O)Nc3ccc(-c4csc(C5CCCNC5)n4)cc32)[nH]1 (stereo not given) | 34% | 69% | 6% |  |  | 480 nM | 1640 nM | 1580 nM | 50 nM | 1340 nM | 1700 nM |
